Experimental data published in patent publication US6673839B1, “Pharmaceutical compositions with antitumour activity” (Universita' Degli Studi di Catania, priority 1998, dated 2004).
Where a name gives a salt, the structure may show the parent alone.

Assays:
Yoshida tumour = assay: Chemopreventive effects on Yoshida tumour inoculation and thriving; assay type: in vivo, Sprague-Dowley rats
Method: In order to elucidate the actual chemoprevention antitumour Potentialities of L-aC, 125 Sprague-Dowley rats (4 months old, mean weight: 200 g), under standard feeding and temperature conditions (25° C.), were divided in 5 groups and treated as follows:
Group 1: 25 rats were intraperitoneally treated, on alternate days for 10 days, with 25 mg of L-aC diluted in 5 ml of saline solution. On day 10 they were inoculated with Yoshida tumour.
Group 2: 25 rats were intraperitoneally treated, on alternate days for 10 days, with 25 mg of L-aC diluted in 5 ml of saline solution. On day 10 they were inoculated with Yoshida tumour. Starting from day 11, they were further treated intraperitoneally, on alternate days, with 25 mg of L-aC diluted in 5 ml of saline solution, for a further 10 days.
Group 3: 25 previously untreated rats were inoculated, on day 10, with Yoshida tumour. Starting from day 14 they were intraperitoneally treated, on alternate days, with 25 mg of L-aC diluted in 5 ml of saline solution for 10 days.
Group 4: 25 previously untreated rats were inoculated on day 10 with Yoshida tumour. On day 18 to 24 they were intraperitoneally treated, on alternate days, with 25 mg of L-aC diluted in 5 ml of saline solution for 10 days.
Group 5: 25 previously untreated rats were inoculated on day 10 with Yoshida tumour. On day 18 to 24 they were subjected to emptying, on alternate days, of 5 ml of ascitic fluid which was substituted with 50 mg of L-aC diluted in 5 ml of saline solution.
The onset and evolution of the tumour were checked by daily observation and weighing.

[1] = tested on: breast (MCF 7) adenocarcinoma cell line; assay: Methylene blue assay on stabilized human neoplastic cell lines; assay type: cell-based
Method: (§1) The effects of L-aC on stabilized human neoplastic cell lines were tested using the methylene blue assay.
(§2) Acute promyelocytic leukemia cell line (HL60) and prostate (Du 145), colon (HT 29) and breast (MCF 7) adenocarcinoma cell lines have been used.
(§3) Cell suspensions at concentrations of 10^5 cells/ml were prepared.
(§4) 100 μl of the obtained cell suspension were inoculated on 96 well plates and incubated at 37° for 12 hours, to obtain cell adhesion to the plates. After 12 hours, L-aC was added at the concentrations of 0.2 mg/ml, 2 mg/ml, 20 mg/ml. […] Subsequently ethanol was removed and 1% methylene-blue was added for 2 hours. The dye was then removed and the plates were dried before adding 1M HCl.
(§5) The cytotoxicity percentage was calculated using the following formula:
(§6) (1−[O^D treated cells/O^D control cells)×100.
(§7) The optical density was evaluated by Uniskan micro-spectrophotometer with 630 nmwavelength filter.
(§8) The induction of apoptosis (appraised by Giemsa staining) was remarkable mainly on stabilized human neoplastic cell lines from breast and colon carcinomas.

[2] = tested on: colon (HT 29) adenocarcinoma cell line; assay: as above; assay type: cell-based
Method: as §1, §2, §3, §4, §5, §6, §7, §8

[3] = 20 mg/ml, 48 hours after exposure

For `CC(=O)OC(CC(=O)[O-])C[N+](C)(C)C` [L-aC, L-acetylcarnitine hydrochloride], the surviving animals (Yoshida tumour; Group 3, inoculated day 10, 25 mg L-aC i.p. alternate days from day 14 for 10 days, day 10) was 25, the surviving animals (Yoshida tumour; Group 3, inoculated day 10, 25 mg L-aC i.p. alternate days from day 14 for 10 days, day 11) was 25 and the surviving animals (Yoshida tumour; Group 3, inoculated day 10, 25 mg L-aC i.p. alternate days from day 14 for 10 days, day 14) was 25. The surviving animals (Yoshida tumour; Group 3, inoculated day 10, 25 mg L-aC i.p. alternate days from day 14 for 10 days, day 18) was 25, the surviving animals (Yoshida tumour; Group 3, inoculated day 10, 25 mg L-aC i.p. alternate days from day 14 for 10 days, day 21) was 20 and the surviving animals (Yoshida tumour; Group 3, inoculated day 10, 25 mg L-aC i.p. alternate days from day 14 for 10 days, day 24) was 18. The surviving animals (Yoshida tumour; Group 3, inoculated day 10, 25 mg L-aC i.p. alternate days from day 14 for 10 days, day 27) was 16, the surviving animals (Yoshida tumour; Group 3, inoculated day 10, 25 mg L-aC i.p. alternate days from day 14 for 10 days, day 30) was 16 and the surviving animals (Yoshida tumour; Group 3, inoculated day 10, 25 mg L-aC i.p. alternate days from day 14 for 10 days, day 45) was 16. The “ascites amount in survivors” value (Yoshida tumour; Group 3, day 27) was “markedly low or even no ascites amount”, the animals still alive (Yoshida tumour; Group 4 (25 mg L-aC i.p. alternate days day 18 to 24, inoculated day 10), day 27 of observation) was 11/25 and the surviving animals (Yoshida tumour; Group 4, inoculated day 10, 25 mg L-aC i.p. alternate days day 18 to 24, day 01 of observation) was 25. For the same compound, the surviving animals (Yoshida tumour; Group 4, inoculated day 10, 25 mg L-aC i.p. alternate days day 18 to 24, day 03) was 25, the surviving animals (Yoshida tumour; Group 4, inoculated day 10, 25 mg L-aC i.p. alternate days day 18 to 24, day 05) was 25 and the surviving animals (Yoshida tumour; Group 4, inoculated day 10, 25 mg L-aC i.p. alternate days day 18 to 24, day 07) was 25. It also gave a surviving animals (Yoshida tumour; Group 4, inoculated day 10, 25 mg L-aC i.p. alternate days day 18 to 24, day 09) of 25, a surviving animals (Yoshida tumour; Group 4, inoculated day 10, 25 mg L-aC i.p. alternate days day 18 to 24, day 10) of 25 and a surviving animals (Yoshida tumour; Group 4, inoculated day 10, 25 mg L-aC i.p. alternate days day 18 to 24, day 11) of 25. It also gave a surviving animals (Yoshida tumour; Group 4, inoculated day 10, 25 mg L-aC i.p. alternate days day 18 to 24, day 14) of 25, a surviving animals (Yoshida tumour; Group 4, inoculated day 10, 25 mg L-aC i.p. alternate days day 18 to 24, day 18) of 25 and a surviving animals (Yoshida tumour; Group 4, inoculated day 10, 25 mg L-aC i.p. alternate days day 18 to 24, day 21) of 15. It also gave a surviving animals (Yoshida tumour; Group 4, inoculated day 10, 25 mg L-aC i.p. alternate days day 18 to 24, day 24) of 13, a surviving animals (Yoshida tumour; Group 4, inoculated day 10, 25 mg L-aC i.p. alternate days day 18 to 24, day 27) of 11 and a surviving animals (Yoshida tumour; Group 4, inoculated day 10, 25 mg L-aC i.p. alternate days day 18 to 24, day 30) of 11. The surviving animals (Yoshida tumour; Group 4, inoculated day 10, 25 mg L-aC i.p. alternate days day 18 to 24, day 45) was 11, the “ascites amount in survivors” value (Yoshida tumour; Group 4, day 27) was “markedly low or even no ascites amount” and the “day of observation by which all animals died” value (Yoshida tumour; Group 5 (50 mg L-aC replacing 5 ml ascitic fluid, alternate days day 18 to 24)) was at most 26 days. The surviving animals (Yoshida tumour; Group 5, inoculated day 10, 50 mg L-aC replacing 5 ml ascitic fluid alternate days day 18 to 24, day 01 of observation) was 25, the surviving animals (Yoshida tumour; Group 5, inoculated day 10, 50 mg L-aC replacing 5 ml ascitic fluid alternate days day 18 to 24, day 03) was 25 and the surviving animals (Yoshida tumour; Group 5, inoculated day 10, 50 mg L-aC replacing 5 ml ascitic fluid alternate days day 18 to 24, day 05) was 25. It also gave a surviving animals (Yoshida tumour; Group 5, inoculated day 10, 50 mg L-aC replacing 5 ml ascitic fluid alternate days day 18 to 24, day 07) of 25, a surviving animals (Yoshida tumour; Group 5, inoculated day 10, 50 mg L-aC replacing 5 ml ascitic fluid alternate days day 18 to 24, day 09) of 25 and a surviving animals (Yoshida tumour; Group 5, inoculated day 10, 50 mg L-aC replacing 5 ml ascitic fluid alternate days day 18 to 24, day 10) of 25. For the same compound, the surviving animals (Yoshida tumour; Group 5, inoculated day 10, 50 mg L-aC replacing 5 ml ascitic fluid alternate days day 18 to 24, day 11) was 25, the surviving animals (Yoshida tumour; Group 5, inoculated day 10, 50 mg L-aC replacing 5 ml ascitic fluid alternate days day 18 to 24, day 14) was 25 and the surviving animals (Yoshida tumour; Group 5, inoculated day 10, 50 mg L-aC replacing 5 ml ascitic fluid alternate days day 18 to 24, day 18) was 25. For the same compound, the surviving animals (Yoshida tumour; Group 5, inoculated day 10, 50 mg L-aC replacing 5 ml ascitic fluid alternate days day 18 to 24, day 21) was 8, the surviving animals (Yoshida tumour; Group 5, inoculated day 10, 50 mg L-aC replacing 5 ml ascitic fluid alternate days day 18 to 24, day 24) was 3 and the surviving animals (Yoshida tumour; Group 5, inoculated day 10, 50 mg L-aC replacing 5 ml ascitic fluid alternate days day 18 to 24, day 27) was 0. The surviving animals (Yoshida tumour; Group 5, inoculated day 10, 50 mg L-aC replacing 5 ml ascitic fluid alternate days day 18 to 24, day 30) was 0, the surviving animals (Yoshida tumour; Group 5, inoculated day 10, 50 mg L-aC replacing 5 ml ascitic fluid alternate days day 18 to 24, day 45) was 0 and the “general condition of surviving animals” value (Yoshida tumour; day 45 of observation) was “good health”. The “deaths during further observation” value (Yoshida tumour; survivors, further 6 weeks) was “no deaths occurred”, the “cytotoxicity (percentage of dead cells)” value [1, 3] was 68% and the “induction of apoptosis (Giemsa staining)” value ([1]; breast carcinoma line) was “remarkable”. For the same compound, the “cytotoxicity (percentage of dead cells)” value [2, 3] was 63% and the “induction of apoptosis (Giemsa staining)” value ([2]; colon carcinoma line) was “remarkable”.
